These results are taken from patent US8183262B2, “Pyridine derivatives as mGluR2 antagonists” (Hoffmann-La Roche Inc., priority 2007, dated 2012).

Molecules are shown by their SMILES.

For one data set, the target named is T1, rat mGlu2 receptor (Rattus norvegicus, UniProt P31421).
T1 construct: expressed in transfected cells; membranes prepared
Kind of data set: [3H]-LY354740 binding on mGlu2 transfected CHO cell membranes. Particulars: inhibition of 10 nM [3H]-LY354740 binding, membranes of CHO cells transfected with rat mGlu2, room temperature, 1 hour. The text has this: [^3H]-LY354740 Binding on mGlu2 Transfected CHO Cell Membranes. Transfection and Cell Culture
cDNA encoding the rat mGlu2 receptor protein in pBluescript II was subcloned into the eukaryotic expression vector pcDNA I-amp from Invitrogen Ltd (Paisley, UK). This vector construct (pcD1mGR2) was co-transfected with a psvNeo plasmid encoding the gene for neomycin resistance, into CHO cells by a modified calcium phosphate method described by Chen & Okayama (1988). The cells were maintained in Dulbecco's Modified Eagle medium with reduced L-glutamine (1 mM final concentration), 36 mg/L L-Proline and 10% dialysed foetal calf serum from Gibco-Invitrogen; the medium was supplemented with 500 microM α-methyl-4-carboxyphenylglycine (MCPG). Selection was made in the presence of G-418 (300 ug/ml final concentration). Clones were identified by reverse transcription of 5 μg total RNA, followed by PCR using mGlu2 receptor specific primers 5′-[…]-3′ and 5′-[…]-3′ in 60 mM Tris HCl (pH 10), 15 mM (NH4)2SO4, 2 mM MgCl2, 25 units/ml Taq Polymerase with 30 cycles annealing at 60° C. for 1 min., extention at 72° C. for 30 s, and 1 min. 95° C. denaturation.
Cells, cultured as above, were harvested and washed three times with cold PBS and frozen at −80° C. The pellet was resuspended in cold 20 mM HEPES-NaOH buffer containing 10 mM EDTA (pH 7.4), and homogenised with a polytron (Kinematica, A G, Littau, Switzerland) for 10 s at 10 000 rpm. After centrifugation for 30 min. at 4° C., the pellet was washed once with cold 20 mM HEPES-NaOH buffer containing 0.1 mM EDTA, (pH 7.4). After a second centrifugation for 30 min. at 4° C. the pellet was resuspended in cold 20 mM HEPES-NaOH buffer containing 0.1 mM EDTA, (pH 7.4). Protein content was measured using the Micro BCA method from Pierce-Perbio (Rockford, Ill., USA) using bovine serum albumin as standard.
After thawing, the membranes were resuspended in cold 50 mM Tris-HCl buffer containing 2 mM MgCl2 (pH 7.4) (binding buffer). The final concentration of the membranes in the assays was 25 μg protein/ml. Inhibition experiments were performed with membranes incubated with 10 nM [^3H]-LY354740 at room temperature, for 1 hour, in presence of various concentrations of the compound to be tested. Following the incubations, membranes were filtered onto Whatmann GF/B glass fiber filters or onto GF/B Unifilter plates and washed 5 times with cold binding buffer. Non specific binding was measured in the presence of 10 μM (2S,2′R,3′R)-2-(2′3′-Dicarboxycyclopropyl)glycine (DCG IV from Tocris, Ellisville, Mo. USA). After transfer of the filters into plastic vials containing 10 ml of Ultima-gold scintillation fluid from Perkin-Elmer (Boston, Mass., USA), the radioactivity was measured by liquid scintillation in a Tri-Carb 2500 TR counter (Packard, Zürich, Switzerland). For 96-Unifilter plates the radioactivity was measured after addition of Microscint 40 scintillation fluid (Perkin Elmer, Boston Mass.) using a TopCount NXT (Packard)
The inhibition curves were fitted with a four parameter logistic equation giving IC50 values, and Hill coefficients.

T1 sequence (P31421 19-872): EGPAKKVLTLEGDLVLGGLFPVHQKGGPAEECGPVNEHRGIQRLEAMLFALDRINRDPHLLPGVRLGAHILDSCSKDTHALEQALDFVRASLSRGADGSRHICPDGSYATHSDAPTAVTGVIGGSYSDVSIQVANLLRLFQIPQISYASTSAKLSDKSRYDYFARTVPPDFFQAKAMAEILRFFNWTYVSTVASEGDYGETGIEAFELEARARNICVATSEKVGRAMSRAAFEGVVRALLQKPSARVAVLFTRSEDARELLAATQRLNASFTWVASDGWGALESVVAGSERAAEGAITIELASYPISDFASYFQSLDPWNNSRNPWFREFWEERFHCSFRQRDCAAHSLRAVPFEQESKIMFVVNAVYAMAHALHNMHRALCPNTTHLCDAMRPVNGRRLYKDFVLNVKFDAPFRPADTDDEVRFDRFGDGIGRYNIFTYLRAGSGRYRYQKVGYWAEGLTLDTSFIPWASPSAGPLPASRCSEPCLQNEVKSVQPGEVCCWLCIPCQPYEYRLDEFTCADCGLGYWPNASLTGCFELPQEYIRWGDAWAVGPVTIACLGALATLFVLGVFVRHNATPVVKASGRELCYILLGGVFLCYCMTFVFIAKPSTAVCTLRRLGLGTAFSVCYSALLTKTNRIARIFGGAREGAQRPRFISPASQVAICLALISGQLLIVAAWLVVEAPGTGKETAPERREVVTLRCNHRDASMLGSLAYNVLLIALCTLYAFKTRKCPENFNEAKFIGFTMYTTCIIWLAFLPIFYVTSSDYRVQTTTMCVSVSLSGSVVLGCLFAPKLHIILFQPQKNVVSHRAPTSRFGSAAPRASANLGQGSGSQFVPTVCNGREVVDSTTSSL

The term Ki denotes the equilibrium dissociation constant of an inhibitor or competing ligand from its target. A high value points to lower affinity. For orientation: melting point means the temperature, or range, at which the solid turns liquid. On to `FC(F)(F)c1ccc(-c2cc(C(F)(F)F)cc(-c3cccc(-c4cccnc4)c3)n2)cc1` [Example 59, 2-(3-Pyridin-3-yl-phenyl)-4-trifluoromethyl-6-(4-trifluoromethyl-phenyl)-pyridine], for which the melting point was 164 to 166 °C. Further, the affinity at rat mGlu2 receptor corresponds to a Ki of 58.3 nM.
Taken in the same sequence, the figures for `Nc1ccc(-c2cccc(-c3cc(C(F)(F)F)cc(-c4ccc(C(F)(F)F)cc4)n3)c2)cn1` [Example 60, 5-{3-[4-Trifluoromethyl-6-(4-trifluoromethyl-phenyl)-pyridin-2-yl]-phenyl}-pyridin-2-ylamine] were 170 to 172 °C and 32 nM.
Taken in the same sequence, the figures for `Cc1cc(-c2ccc(C(F)(F)F)cc2)cc(-c2cccc(-c3cccnc3)c2)n1` [Example 61, 2-Methyl-6-(3-pyridin-3-yl-phenyl)-4-(4-trifluoromethyl-phenyl)-pyridine] were 89 to 106 °C and 13 nM.
Molecule `Cc1cc(-c2ccc(C(F)(F)F)cc2)cc(-c2cccc(-c3ccc(N)nc3)c2)n1` [Example 62, 5-{3-[6-Methyl-4-(4-trifluoromethyl-phenyl)-pyridin-2-yl]-phenyl}-pyridin-2-ylamine] registered a melting point of 68 to 90 °C. The affinity on rat mGlu2 receptor, expressed as Ki, was 3 nM.
Taken in the same sequence, the figures for `FC(F)(F)c1ccc(-c2cc(-c3cccc(-c4cccnc4)c3)nc(C3CC3)c2)cc1` [Example 63, 2-Cyclopropyl-6-(3-pyridin-3-yl-phenyl)-4-(4-trifluoromethyl-phenyl)-pyridine] were 100 to 104 °C and 29 nM.
Taken in the same sequence, the figures for `Nc1ccc(-c2cn(-c3cc(C(F)(F)F)cc(-c4ccc(C(F)(F)F)cc4)n3)cn2)cn1` [Example 65, 5-{1-[4-Trifluoromethyl-6-(4-trifluoromethyl-phenyl)-pyridin-2-yl]-1H-imidazol-4-yl}-pyridin-2-ylamine] were 245 to 247 °C and 6 nM.
Molecule `Cc1cc(-c2ccc(C(F)(F)F)cc2)cc(-c2cccc(-c3cnc(N)nc3)c2)n1` [Example 70, 5-{3-[6-Methyl-4-(4-trifluoromethyl-phenyl)-pyridin-2-yl]-phenyl}-pyrimidin-2-ylamine] registered a melting point of 215 to 217 °C. Also, on rat mGlu2 receptor, the affinity, expressed as Ki, was 44 nM.
Taken in the same sequence, the figures for `Cc1cc(-c2ccc(C(F)(F)F)cc2)cc(-c2cccc(-c3ccc(N)nc3)n2)n1` [Example 71, 6-Methyl-4-(4-trifluoromethyl-phenyl)-[2,2′;6′,3″]terpyridin-6″-ylamine] were 208 to 211 °C and 1 nM.
Taken in the same sequence, the figures for `Cc1cc(-c2ccc(C(F)(F)F)cc2)cc(-c2cccc(-c3cnc(N)nc3)n2)n1` [Example 72, 5-[6′-Methyl-4′-(4-trifluoromethyl-phenyl)-[2,2′]bipyridinyl-6-yl]-pyrimidin-2-ylamine] were 219 to 222 °C and 56 nM.
Molecule `Cc1cc(-c2ccc(C(F)(F)F)cc2)cc(-c2cccc(-c3ccc(S(N)(=O)=O)cc3)n2)n1` [Example 73, 4-[6′-Methyl-4′-(4-trifluoromethyl-phenyl)-[2,2′]bipyridinyl-6-yl]-benzenesulfonamide] gave a melting point of 215 to 227 °C. On rat mGlu2 receptor, this molecule had a Ki of 19 nM.
The molecule `Nc1ccc(-c2cc(-c3cc(C(F)(F)F)cc(-c4ccc(C(F)(F)F)cc4)n3)ccn2)cn1` [Example 74, 4-Trifluoromethyl-6-(4-trifluoromethyl-phenyl)-[2,4′;2′,3″]terpyridin-6″-ylamine] showed a melting point of 194 to 196 °C. At rat mGlu2 receptor, this molecule displayed an inhibitory constant (Ki) of 10 nM.
Taken in the same sequence, the figures for `CCOc1cc(-c2cc(C(F)(F)F)nc(-c3nc(-c4ccc(N)nc4)no3)n2)ccc1C(F)(F)F` [Example 90, 5-{5-[4-(3-Ethoxy-4-trifluoromethyl-phenyl)-6-trifluoromethyl-pyrimidin-2-yl]-[1,2,4]oxadiazol-3-yl}-pyridin-2-ylamine] were 216 °C and 55 nM.
Taken in the same sequence, the figures for `OCc1ccc(-c2cccc(-c3nc(-c4ccc(C(F)(F)F)cc4)cc(C(F)(F)F)n3)c2)cc1` [Example 114, {3′-[4-Trifluoromethyl-6-(4-trifluoromethyl-phenyl)-pyrimidin-2-yl]-biphenyl-4-yl}-methanol] were 171 °C and 6 nM.
Taken in the same sequence, the figures for `Nc1ncc(-c2cccc(-c3nc(-c4ccc(C(F)(F)F)c(OCC(F)(F)F)c4)cc(C(F)(F)F)n3)c2)cn1` [Example 138, 5-(3-{4-[3-(2,2,2-Trifluoro-ethoxy)-4-trifluoromethyl-phenyl]-6-trifluoromethyl-pyrimidin-2-yl}-phenyl)-pyrimidin-2-ylamine] were 250 °C and 28 nM.
Turning to `FC(F)(F)c1ccc(-c2cc(C(F)(F)F)nc(-n3cnc(-c4ccncc4)n3)n2)cc1` [Example 148, 2-(3-Pyridin-4-yl-[1,2,4]triazol-1-yl)-4-trifluoromethyl-6-(4-trifluoromethyl-phenyl)-pyrimidine], the melting point stood at 248 °C. The same molecule displayed an inhibitory constant (Ki) on rat mGlu2 receptor of 49 nM.
On to `CC(C)(C)NS(=O)(=O)c1cccc(-c2cccc(-c3nc(-c4ccc(C(F)(F)F)cc4)cc(C(F)(F)F)n3)c2)c1` [Example 155, 3′-[4-Trifluoromethyl-6-(4-trifluoromethyl-phenyl)-pyrimidin-2-yl]-biphenyl-3-sulfonic acid tert-butylamide], for which the melting point stood at 200 °C. On rat mGlu2 receptor, the inhibitory constant (Ki) stood at 8.4 nM.
Molecule `Nc1ncc(-c2cn(-c3nc(-c4cccc(Cl)c4)cc(C(F)(F)F)n3)cn2)cn1` [Example 187, 5-{1-[4-(3-Chloro-phenyl)-6-trifluoromethyl-pyrimidin-2-yl]-1H-imidazol-4-yl}-pyrimidin-2-ylamine] came in with a melting point of 281 °C. For the same molecule, the affinity at rat mGlu2 receptor, expressed as Ki, was 13.7 nM.
`Cc1cc(-c2ccc(Cl)cc2)nc(-n2cnc(-c3cccc(S(C)(=O)=O)c3)c2)n1` [Example 210, 4-(4-Chloro-phenyl)-2-[4-(3-methanesulfonyl-phenyl)-imidazol-1-yl]-6-methyl-pyrimidine] registered a melting point of 233 °C. For the same molecule, on rat mGlu2 receptor, the affinity corresponds to a Ki of 23 nM.
Taken in the same sequence, the figures for `CS(=O)(=O)c1cccc(-c2cc(-c3nc(-c4ccc(C(F)(F)F)cc4)cc(C(F)(F)F)n3)ccn2)c1` [Example 218, 2-[2-(3-Methanesulfonyl-phenyl)-pyridin-4-yl]-4-trifluoromethyl-6-(4-trifluoromethyl-phenyl)-pyrimidine] were 238.5 °C and 3 nM.
In turn, `NS(=O)(=O)Nc1cccc(-c2cccc(-c3nc(-c4ccc(C(F)(F)F)cc4)cc(C(F)(F)F)n3)c2)c1` [Example 221, N-{3′-[4-Trifluoromethyl-6-(4-trifluoromethyl-phenyl)-pyrimidin-2-yl]-biphenyl-3-yl}-sulfamide] registered a melting point of 174 °C. Besides, the inhibition constant (Ki) at rat mGlu2 receptor worked out at 7 nM.
Taken in the same sequence, the figures for `CN(C)S(=O)(=O)Nc1cccc(-c2cccc(-c3nc(-c4ccc(C(F)(F)F)cc4)cc(C(F)(F)F)n3)c2)c1` [Example 222, N-{3′-[4-Trifluoromethyl-6-(4-trifluoromethyl-phenyl)-pyrimidin-2-yl]-biphenyl-3-yl}-N′,N′-dimethyl-sulfamide] were 113 °C and 12.4 nM.
`CS(=O)(=O)Nc1cccc(-c2cccc(-c3nc(-c4ccc(C(F)(F)F)cc4)cc(C(F)(F)F)n3)c2)c1` [Example 223, N-{3′-[4-Trifluoromethyl-6-(4-trifluoromethyl-phenyl)-pyrimidin-2-yl]-biphenyl-3-yl}-methanesulfonamide] gave a melting point of 191 °C. This molecule showed an inhibition constant Ki on rat mGlu2 receptor of 13 nM.
Taken in the same sequence, the figures for `Cc1cn(-c2cccc(-c3cc(-c4ccc(C(F)(F)F)cc4)cc(C)n3)c2)cn1` [Example 227, 2-Methyl-6-[3-(4-methyl-imidazol-1-yl)-phenyl]-4-(4-trifluoromethyl-phenyl)-pyridine] were 126 to 132 °C and 34 nM.
